Source: patent US20210070748A1, “INHIBITORS OF BRUTONS TYROSINE KINASE” (Pharmacyclics LLC, priority 2015, published 2021)
pIC50: −log10 of the molar value.

Tests used:
Assay type in all cases: biochemical
LCK = LCK (Homo sapiens, UniProt P06239); assay: Inhibition of a panel of kinases, in vitro HotSpot kinase assay: LCK; details: D-compounds panel data; 1 μM ATP; read-out: IC50 LCK
SRC = SRC (Homo sapiens, UniProt P12931); assay: Inhibition of a panel of kinases, in vitro HotSpot kinase assay: SRC; details: D-compounds panel data; 1 μM ATP
SRC, sequence (P12931 whole entry): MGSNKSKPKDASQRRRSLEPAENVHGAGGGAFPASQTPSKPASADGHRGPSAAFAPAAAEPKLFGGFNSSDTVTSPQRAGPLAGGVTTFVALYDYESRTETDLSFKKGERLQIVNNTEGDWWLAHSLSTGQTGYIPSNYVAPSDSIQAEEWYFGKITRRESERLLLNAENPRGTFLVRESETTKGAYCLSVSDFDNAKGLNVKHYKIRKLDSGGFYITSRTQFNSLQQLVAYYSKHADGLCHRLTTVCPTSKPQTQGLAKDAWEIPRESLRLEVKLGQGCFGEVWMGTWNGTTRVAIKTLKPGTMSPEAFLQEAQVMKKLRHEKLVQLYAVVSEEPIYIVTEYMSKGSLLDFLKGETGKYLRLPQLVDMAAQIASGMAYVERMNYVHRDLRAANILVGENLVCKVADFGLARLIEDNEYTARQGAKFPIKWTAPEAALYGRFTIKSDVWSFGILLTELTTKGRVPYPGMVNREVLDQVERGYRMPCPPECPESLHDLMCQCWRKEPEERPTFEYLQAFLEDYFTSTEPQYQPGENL
Experimental: (§1) The degree of inhibition of a panel of kinases is determined using the in vitro HotSpot kinase assay (purified enzymes, ^33P-ATP, an appropriate substrate and 1 μM ATP).

EGFR = EGFR (Homo sapiens, UniProt P00533); assay: Inhibition of a panel of kinases, in vitro HotSpot kinase assay: EGFR; details: D-compounds panel data; 1 μM ATP
EGFR, sequence (P00533 25-1210): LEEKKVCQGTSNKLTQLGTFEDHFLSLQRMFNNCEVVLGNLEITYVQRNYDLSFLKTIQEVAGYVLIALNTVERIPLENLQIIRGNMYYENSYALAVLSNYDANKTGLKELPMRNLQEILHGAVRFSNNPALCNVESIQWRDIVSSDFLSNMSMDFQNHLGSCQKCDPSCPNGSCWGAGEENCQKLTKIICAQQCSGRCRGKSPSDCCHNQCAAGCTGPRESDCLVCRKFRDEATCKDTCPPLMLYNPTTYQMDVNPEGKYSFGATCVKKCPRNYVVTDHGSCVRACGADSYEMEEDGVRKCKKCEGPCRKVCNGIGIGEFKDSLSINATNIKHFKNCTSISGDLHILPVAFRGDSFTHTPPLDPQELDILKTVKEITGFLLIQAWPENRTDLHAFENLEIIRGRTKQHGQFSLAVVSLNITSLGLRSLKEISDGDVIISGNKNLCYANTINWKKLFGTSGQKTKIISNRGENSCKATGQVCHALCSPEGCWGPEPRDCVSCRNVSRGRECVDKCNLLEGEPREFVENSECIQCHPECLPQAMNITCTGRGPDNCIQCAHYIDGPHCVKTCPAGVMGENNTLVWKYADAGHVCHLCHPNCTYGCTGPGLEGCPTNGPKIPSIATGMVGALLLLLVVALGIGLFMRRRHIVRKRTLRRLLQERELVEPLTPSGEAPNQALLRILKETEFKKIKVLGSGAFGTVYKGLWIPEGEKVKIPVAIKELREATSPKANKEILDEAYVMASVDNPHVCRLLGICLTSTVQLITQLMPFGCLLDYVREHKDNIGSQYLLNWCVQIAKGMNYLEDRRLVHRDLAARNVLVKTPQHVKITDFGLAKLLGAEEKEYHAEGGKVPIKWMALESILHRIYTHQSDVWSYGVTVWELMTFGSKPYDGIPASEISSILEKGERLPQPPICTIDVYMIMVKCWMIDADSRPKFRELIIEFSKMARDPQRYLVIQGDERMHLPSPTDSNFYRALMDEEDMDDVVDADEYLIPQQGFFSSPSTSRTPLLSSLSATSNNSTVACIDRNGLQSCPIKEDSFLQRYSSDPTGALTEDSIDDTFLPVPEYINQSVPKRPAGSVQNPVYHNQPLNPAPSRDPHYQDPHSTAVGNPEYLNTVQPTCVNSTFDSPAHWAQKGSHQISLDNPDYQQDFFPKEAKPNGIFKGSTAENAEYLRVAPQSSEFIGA
Experimental: as §1

TEC = target: T1, TEC (Homo sapiens, UniProt P42680); assay: Inhibition of a panel of kinases, in vitro HotSpot kinase assay: TEC; details: D-compounds panel data; 1 μM ATP
T1 sequence (P42680 1-631): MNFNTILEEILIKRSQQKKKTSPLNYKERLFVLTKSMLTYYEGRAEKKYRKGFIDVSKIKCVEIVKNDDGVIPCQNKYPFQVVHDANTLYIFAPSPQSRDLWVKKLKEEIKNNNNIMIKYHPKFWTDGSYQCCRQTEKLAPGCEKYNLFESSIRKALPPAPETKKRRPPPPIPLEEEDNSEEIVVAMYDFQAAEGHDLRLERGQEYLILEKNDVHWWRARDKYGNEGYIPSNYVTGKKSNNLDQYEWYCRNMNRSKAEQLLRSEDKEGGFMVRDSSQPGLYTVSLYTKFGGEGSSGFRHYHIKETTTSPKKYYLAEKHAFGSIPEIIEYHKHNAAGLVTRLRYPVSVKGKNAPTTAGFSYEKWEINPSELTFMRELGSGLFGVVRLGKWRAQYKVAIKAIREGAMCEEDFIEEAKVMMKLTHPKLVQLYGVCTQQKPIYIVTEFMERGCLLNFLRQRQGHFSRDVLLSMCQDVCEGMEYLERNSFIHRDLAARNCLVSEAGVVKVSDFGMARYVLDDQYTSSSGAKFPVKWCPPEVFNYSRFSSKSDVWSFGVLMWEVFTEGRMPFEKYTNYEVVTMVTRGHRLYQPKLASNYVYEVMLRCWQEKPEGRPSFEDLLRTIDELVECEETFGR
Experimental: as §1

JAK3 = target: T2, JAK3 (Homo sapiens, UniProt P52333); assay: Inhibition of a panel of kinases, in vitro HotSpot kinase assay: JAK3; details: D-compounds panel data; 1 μM ATP; read-out: IC50 JAK3
T2 sequence (P52333 1-1124): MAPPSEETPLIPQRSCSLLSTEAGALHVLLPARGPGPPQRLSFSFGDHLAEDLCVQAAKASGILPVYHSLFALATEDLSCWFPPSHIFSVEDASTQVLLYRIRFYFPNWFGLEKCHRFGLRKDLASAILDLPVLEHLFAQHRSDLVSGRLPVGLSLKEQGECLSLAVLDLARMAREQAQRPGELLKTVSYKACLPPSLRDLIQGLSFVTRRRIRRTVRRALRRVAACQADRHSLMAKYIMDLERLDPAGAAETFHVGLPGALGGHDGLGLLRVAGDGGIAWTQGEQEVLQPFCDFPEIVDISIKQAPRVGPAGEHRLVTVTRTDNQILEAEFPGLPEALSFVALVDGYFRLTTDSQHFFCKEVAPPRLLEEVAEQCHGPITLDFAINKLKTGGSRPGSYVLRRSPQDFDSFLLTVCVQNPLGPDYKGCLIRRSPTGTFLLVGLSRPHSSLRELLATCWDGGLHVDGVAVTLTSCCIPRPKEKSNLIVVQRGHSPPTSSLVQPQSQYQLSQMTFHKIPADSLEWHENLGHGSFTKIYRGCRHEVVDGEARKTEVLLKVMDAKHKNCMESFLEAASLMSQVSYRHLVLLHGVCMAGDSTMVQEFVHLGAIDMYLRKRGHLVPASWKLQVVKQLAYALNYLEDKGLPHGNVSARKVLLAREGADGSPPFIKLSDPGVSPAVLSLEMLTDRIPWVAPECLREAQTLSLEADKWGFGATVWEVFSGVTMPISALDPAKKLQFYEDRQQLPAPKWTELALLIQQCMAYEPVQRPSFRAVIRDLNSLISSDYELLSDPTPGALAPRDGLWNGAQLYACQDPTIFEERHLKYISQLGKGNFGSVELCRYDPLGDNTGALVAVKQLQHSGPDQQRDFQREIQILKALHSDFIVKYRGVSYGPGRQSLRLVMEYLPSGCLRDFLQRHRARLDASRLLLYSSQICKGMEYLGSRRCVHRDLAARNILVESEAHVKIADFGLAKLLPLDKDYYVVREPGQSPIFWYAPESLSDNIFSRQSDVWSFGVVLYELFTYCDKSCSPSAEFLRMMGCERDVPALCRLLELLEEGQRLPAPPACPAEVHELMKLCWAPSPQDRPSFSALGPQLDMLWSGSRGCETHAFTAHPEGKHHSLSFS

ITK = target: T3, ITK (Homo sapiens, UniProt Q08881); assay: Inhibition of a panel of kinases, in vitro HotSpot kinase assay: ITK; details: D-compounds panel data; 1 μM ATP
T3 sequence (Q08881 1-620): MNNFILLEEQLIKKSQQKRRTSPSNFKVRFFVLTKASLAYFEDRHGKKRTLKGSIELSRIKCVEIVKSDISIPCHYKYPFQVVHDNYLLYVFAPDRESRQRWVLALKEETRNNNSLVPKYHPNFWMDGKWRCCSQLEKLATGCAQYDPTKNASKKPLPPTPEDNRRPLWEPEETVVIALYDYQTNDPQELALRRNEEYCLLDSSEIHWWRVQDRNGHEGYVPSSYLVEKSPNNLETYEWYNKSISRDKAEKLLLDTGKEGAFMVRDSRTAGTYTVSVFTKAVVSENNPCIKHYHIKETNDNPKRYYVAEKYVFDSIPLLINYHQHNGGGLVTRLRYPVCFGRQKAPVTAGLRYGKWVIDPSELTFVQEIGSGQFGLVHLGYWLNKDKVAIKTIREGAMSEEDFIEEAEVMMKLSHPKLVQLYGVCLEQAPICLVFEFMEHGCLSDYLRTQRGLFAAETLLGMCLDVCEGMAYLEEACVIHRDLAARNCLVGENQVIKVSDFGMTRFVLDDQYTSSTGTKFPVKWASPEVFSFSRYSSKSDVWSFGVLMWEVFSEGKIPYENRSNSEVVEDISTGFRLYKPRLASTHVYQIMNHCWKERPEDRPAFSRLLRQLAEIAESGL
Experimental: as §1

LCK, sequence (P06239 whole entry): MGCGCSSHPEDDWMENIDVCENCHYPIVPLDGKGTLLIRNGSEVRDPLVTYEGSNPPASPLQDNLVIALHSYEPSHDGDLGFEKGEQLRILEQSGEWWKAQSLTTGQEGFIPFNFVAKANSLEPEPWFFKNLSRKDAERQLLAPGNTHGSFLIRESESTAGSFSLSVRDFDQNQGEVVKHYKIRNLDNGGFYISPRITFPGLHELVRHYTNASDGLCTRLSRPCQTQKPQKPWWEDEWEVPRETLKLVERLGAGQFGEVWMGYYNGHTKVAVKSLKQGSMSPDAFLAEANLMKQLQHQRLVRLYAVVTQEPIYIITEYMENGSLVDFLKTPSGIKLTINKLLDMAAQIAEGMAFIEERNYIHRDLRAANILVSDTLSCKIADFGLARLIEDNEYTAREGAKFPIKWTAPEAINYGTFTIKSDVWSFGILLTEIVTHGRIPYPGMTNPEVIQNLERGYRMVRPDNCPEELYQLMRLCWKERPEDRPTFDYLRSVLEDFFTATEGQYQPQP

Compound: Cn1cc(Nc2nc(N3C4CCC(NC(=O)c5ccc(C6CC6)cc5)C3CC4)cnc2C(N)=O)cn1 (single isomer, unassigned) [Example D-199, 5-[2-(4-cyclopropylbenzamido)-8-azabicyclo[3.2.1]octan-8-yl]-3-[(1-methyl-1H-pyrazol-4-yl)amino]pyrazine-2-carboxamide]
- pIC50 (LCK): < 5.00
- pIC50 (SRC): 5.00 to 6.00
- pIC50 (EGFR): < 5.00
- pIC50 (TEC): 5.00 to 6.00
- pIC50 (JAK3): 5.00 to 6.00
- pIC50 (ITK): < 5.00

Compound: Cn1cc(Nc2nc(N3C4CCC(NC(=O)c5ccc(C6CC6)cc5)C3CC4)cnc2C(N)=O)cn1 (single isomer, unassigned) [Example D-200, 5-[2-(4-cyclopropylbenzamido)-8-azabicyclo[32.1]octan-8-yl]-3-[(1-methyl-1H-pyrazol-4-yl)amino]pyrazine-2-carboxamide]
- pIC50 (LCK): 5.00 to 6.00
- pIC50 (SRC): 5.00 to 6.00
- pIC50 (EGFR): 5.00 to 6.00
- pIC50 (TEC): 5.00 to 6.00
- pIC50 (JAK3): < 5.00
- pIC50 (ITK): < 5.00

Compound: Cn1cc(Nc2nc(N3C4CCC(NC(=O)c5ccc(C6CC6)cc5)C3CC4)cnc2C(N)=O)cn1 (single isomer, unassigned) [Example D-201, 5-[2-(4-cyclopropylbenzamido)-8-azabicyclo[3.2.1]octan-8-yl]-3-[(1-methyl-1H-pyrazol-4-yl)amino]pyrazine-2-carboxamide]
- pIC50 (LCK): 6.00 to 7.00
- pIC50 (SRC): 7.00 to 8.00
- pIC50 (EGFR): 5.00 to 6.00
- pIC50 (TEC): ≥ 8.00
- pIC50 (JAK3): 5.00 to 6.00
- pIC50 (ITK): 5.00 to 6.00

Compound: Cn1cc(Nc2nc(N3C4CCC(NC(=O)c5ccc(C6CC6)cc5)C3CC4)cnc2C(N)=O)cn1 (single isomer, unassigned) [Example D-202, 5-[2-(4-cyclopropylbenzamido)-8-azabicyclo[3.2. I]octan-8-yl]-3-[(1-methyl-1H-pyrazol-4-yl)amino]pyrazine-2-carboxamide]
- pIC50 (LCK): 7.00 to 8.00
- pIC50 (SRC): 6.00 to 7.00
- pIC50 (EGFR): < 5.00
- pIC50 (TEC): 6.00 to 7.00
- pIC50 (JAK3): < 5.00
- pIC50 (ITK): 5.00 to 6.00

Compound: C[C@@H]1[C@H](NC(=O)c2ccc(C(C)(O)C(F)(F)F)cc2)CCCN1c1cnc(C(N)=O)c(Nc2cnn(C)c2)n1 (single isomer, unassigned) [Example D-213]
- pIC50 (LCK): 6.00 to 7.00
- pIC50 (SRC): 7.00 to 8.00
- pIC50 (EGFR): 5.00 to 6.00
- pIC50 (TEC): ≥ 8.00
- pIC50 (JAK3): 5.00 to 6.00
- pIC50 (ITK): 6.00 to 7.00

Compound: C[C@@H]1[C@H](NC(=O)c2ccc(C(C)(O)C(F)(F)F)cc2)CCCN1c1cnc(C(N)=O)c(Nc2cnn(C)c2)n1 (single isomer, unassigned) [Example D-214]
- pIC50 (LCK): 7.00 to 8.00
- pIC50 (SRC): 7.00 to 8.00
- pIC50 (EGFR): 6.00 to 7.00
- pIC50 (TEC): ≥ 8.00
- pIC50 (JAK3): 5.00 to 6.00
- pIC50 (ITK): 6.00 to 7.00

Compound: Cn1cc(Nc2nc(N3CC(NC(=O)c4ccc(C5CC5)cc4)CC(F)(F)C3)cnc2C(N)=O)cn1 (stereo in doubt) [Example D-190, 5-[(5S)-5-(4-cyclopropylbenzamido)-3,3-difluoropiperidin-1-yl]-3-[(1-methyl-1H-pyrazol-4-yl)amino]pyrazine-2-carboxamide]
- pIC50 (LCK): 6.00 to 7.00
- pIC50 (SRC): 6.00 to 7.00
- pIC50 (EGFR): 5.00 to 6.00
- pIC50 (TEC): 6.00 to 7.00
- pIC50 (JAK3): 5.00 to 6.00
- pIC50 (ITK): 5.00 to 6.00

Compound: C[C@@H]1[C@H](NC(=O)c2ccc(C3CC3)cc2F)CCCN1c1cnc(C(N)=O)c(Nc2ccc(N3CCN(C)C[C@@H]3C)cc2)n1 [Example D-12, 5-[(2R,3R)-3-(4-cyclopropyl-2-fluorobenzamido)-2-methylpiperidin-1-yl]-3-({4-[(2S)-2,4-dimethylpiperazin-1-yl]phenyl}amino)pyrazine-2-carboxamide]
- pIC50 (LCK): 7.00 to 8.00
- pIC50 (SRC): 6.00 to 7.00
- pIC50 (EGFR): 6.00 to 7.00
- pIC50 (TEC): 7.00 to 8.00
- pIC50 (JAK3): 6.00 to 7.00
- pIC50 (ITK): 6.00 to 7.00

Compound: C[C@@H]1[C@H](NC(=O)c2ccc(C3CC3)cc2F)CCCN1c1cnc(C(N)=O)c(Nc2ccc(N3CCN(C)CC3)nc2)n1 [Example D-13, 5-[(2R,3R)-3-(4-cyclopropyl-2-fluorobenzamido)-2-methylpiperidin-1-yl]-3-{[6-(4-methylpiperazin-1-yl)pyridin-3-yl]amino}pyrazine-2-carboxamide]
- pIC50 (LCK): 6.00 to 7.00
- pIC50 (SRC): 6.00 to 7.00
- pIC50 (EGFR): 5.00 to 6.00
- pIC50 (TEC): 6.00 to 7.00
- pIC50 (JAK3): 5.00 to 6.00
- pIC50 (ITK): 5.00 to 6.00

Compound: C[C@@H]1[C@H](NC(=O)c2ccc(C(C)(C)C)cc2)CCCN1c1cnc(C(N)=O)c(Nc2ccc(N3CCN(C)CC3)cc2)n1 [Example D-14, 5-[(2R,3R)-3-(4-tert-butylbenzamido)-2-methylpiperidin-1-yl]-3-{[4-(4-methylpiperazin-1-yl)phenyl]amino}pyrazine-2-carboxamide]
- pIC50 (LCK): 7.00 to 8.00
- pIC50 (SRC): 7.00 to 8.00
- pIC50 (EGFR): 5.00 to 6.00
- pIC50 (TEC): 7.00 to 8.00
- pIC50 (JAK3): 5.00 to 6.00
- pIC50 (ITK): 6.00 to 7.00

Compound: Cc1cc(Nc2nc(N3CCC[C@@H](NC(=O)N4Cc5ccccc5C4=O)C3)cnc2C(N)=O)sn1 [Example D-15, N-[(3R)-1-{5-carbamoyl-6-[(3-methyl-1,2-thiazol-5-yl)amino]pyrazin-2-yl}piperidin-3-yl]-1-oxo-2,3-dihydro-1H-isoindole-2-carboxamide]
- pIC50 (LCK): 7.00 to 8.00
- pIC50 (SRC): 7.00 to 8.00
- pIC50 (EGFR): 6.00 to 7.00
- pIC50 (TEC): 7.00 to 8.00
- pIC50 (JAK3): 5.00 to 6.00
- pIC50 (ITK): 7.00 to 8.00

Compound: C[C@@H]1[C@H](NC(=O)c2ccc(C3CC3)cc2Cl)CCCN1c1cnc(C(N)=O)c(Nc2ccc(N3CCN(C)CC3)cc2)n1 [Example D-16, 5-[(2R,3R)-3-(2-chloro-4-cyclopropylbenzamido)-2-methylpiperidin-1-yl]-3-{[4-(4-methylpiperazin-1-yl)phenyl]amino}pyrazine-2-carboxamide]
- pIC50 (LCK): 7.00 to 8.00
- pIC50 (SRC): 6.00 to 7.00
- pIC50 (EGFR): 6.00 to 7.00
- pIC50 (TEC): 7.00 to 8.00
- pIC50 (JAK3): 5.00 to 6.00
- pIC50 (ITK): 6.00 to 7.00
